Reference: US20080103185A1, “Process for Producing Thiazolidinedione Compound and Production Intermediate Thereof” (DAIICHI SANKYO COMPANY, LIMITED, priority 2005, published 2008)

Test: Test for quality and stability over time of compound (III^1) crystals, HPLC peak area content
Assay type: physicochemical
Conditions: HPLC area %
Protocol: Test for quality and stability over time of tert-butyl N-{2-{4-[(2,4-dioxothiazolidin-5-yl)methyl]phenoxyacetylamino}-5-methoxyphenyl}-N-methylcarbamate (compound (III^1))
Quality of four samples (the crystals obtained in Example 3, the crystals obtained in Example 3 and stored at 40° C. for 40 days, the purified crystals obtained in Example 4 and the purified crystals obtained in Example 4 and stored at 40° C. for 42 days) was analyzed. Quality was analyzed by the following method.
A solution of about 10 mg/L of the compound (III^1) in acetonitrile-water (4:1) was prepared.
About 20 μL of the sample solution was analyzed by high-performance liquid chromatography under the following conditions.
Column: L-column ODS 4.6×250 mm (Chemicals-Evaluation and Research Institute, Japan)
Mobile phase: 0.02 M ammonium acetate solution/acetonitrile mixture (55:45)
Detection wavelength: 220 nm
Measurement temperature: 40° C.
Peak areas were determined from chromatograms, respectively, to provide a content of each component (%) 100× (peak area of each component)/(total peak area of all components).

Row | content of component at relative retention time 3.01 (crystals stored at 40° C. for 40 days, immediately after drying 0.05) [%] | content of component at relative retention time 0.46 (crystals stored at 40° C. for 40 days, immediately after drying 0.16) [%] | content of component at relative retention time 0.43 (crystals stored at 40° C. for 40 days, immediately after drying 0.39) [%] | Total of other components (crystals stored at 40° C. for 40 days, immediately after drying 0.54) [%] | content of component at relative retention time 0.21 (crystals stored at 40° C. for 40 days, immediately after drying 0.60) [%] | Total of impurities (crystals stored at 40° C. for 40 days, immediately after drying 1.74) [%] | content of test substance (relative retention time 1.00) (crystals stored at 40° C. for 40 days, immediately after drying 98.26) [%] | content of component at relative retention time 3.01 (purified crystals stored at 40° C. for 42 days, immediately after drying 0.04) [%] | content of component at relative retention time 0.43 (purified crystals stored at 40° C. for 42 days, immediately after drying 0.07) [%] | content of component at relative retention time 0.46 (purified crystals stored at 40° C. for 42 days, immediately after drying 0.08) [%] | content of component at relative retention time 0.21 (purified crystals stored at 40° C. for 42 days, immediately after drying 0.19) [%] | Total of other components (purified crystals stored at 40° C. for 42 days, immediately after drying 0.25) [%] | Total of impurities (purified crystals stored at 40° C. for 42 days, immediately after drying 0.63) [%] | content of test substance (relative retention time 1.00) (purified crystals stored at 40° C. for 42 days, immediately after drying 99.37) [%] | Compound
1 | 0.05 | 0.48 | 0.32 | 0.56 | 0.63 | 2.04 | 97.96 |  |  |  |  |  |  |  | COc1ccc(NC(=O)COc2ccc(CC3SC(=O)NC3=O)cc2)c(N(C)C(=O)OC(C)(C)C)c1 (centres unmarked) [Crystals of Example 3, tert-Butyl N-{2-{4-[(2,4-dioxothiazolidin-5-yl)methyl]phenoxyacetylamino}-5-methoxyphenyl}-N-methylcarbamate]
2 |  |  |  |  |  |  |  | 0.03 | 0.07 | 0.09 | 0.26 | 0.20 | 0.65 | 99.35 | COc1ccc(NC(=O)COc2ccc(CC3SC(=O)NC3=O)cc2)c(N(C)C(=O)OC(C)(C)C)c1 (centres unmarked) [Purified crystals of Example 4, tert-Butyl N-{2-{4-[(2,4-dioxothiazolidin-5-yl)methyl]phenoxyacetylamino}-5-methoxyphenyl}-N-methylcarbamate]
